Key:
Experiment in all cases: Test C postemergence
Surinam grass = assay type: in vivo, Brachiaria decumbens; settings: for Surinam Grass plant response rating: 62 g ai/ha, scale 0 to 100
Source text: (§1) Seeds of plant species selected from blackgrass (Alopecurus myosuroides), ryegrass, Italian (Italian ryegrass, Lolium multiflorum), wheat (winter wheat, Triticum aestivum), galium (catchweed bedstraw, Galium aparine), corn (Zea mays), crabgrass, large (large crabgrass, Digitaria sanguinalis), foxtail, giant (giant foxtail, Setaria faberii), johnsongrass (Sorghum halepense), lambsquarters (Chenopodium album), morningglory (Ipomoea coccinea), nutsedge, yellow (yellow nutsedge, Cyperus esculentus), pigweed (redroot pigweed, Amaranthus retroflexus), ragweed (common ragweed, Ambrosia elation), soybean (Glycine max), barnyardgrass (Echinochloa crus-galli), oilseed rape (Brassica napus), waterhemp (common waterhemp, Amaranthus rudis), oat, wild (wild oat, Avena fatua), kochia (Kochia scoparia), Surinam grass (Brachiaria decumbens), foxtail, green (green foxtail, Setaria viridis), goosegrass (Eleusine indica), bromegrass, downy (downy bromegrass, Bromus tectorum), nightshade (eastern black nightshade, Solanum ptycanthum), cocklebur (common cocklebur, Xanthium strumarium), cupgrass, woolly (woolly cupgrass, Eriochloa villosa), bermudagrass (Cynodon dactylon), sunflower, (common oilseed sunflower, Helianthus annuus), Russian thistle (Salsola kali), and velvetleaf (Abutilon theophrasti) were planted into a blend of loam soil and sand and treated preemergence with test chemicals formulated in a non-phytotoxic solvent mixture which included a surfactant.
(§2) At the same time, plants selected from these crop and weed species and also chickweed (common chickweed, Stellaria media), canarygrass (littleseed canarygrass, Phalaris minor), and deadnettle (henbit deadnettle, Lamium amplexicaule), were planted in pots containing Redi-Earth® planting medium (Scotts Company, 14111 Scottslawn Road, Marysville, Ohio 43041) comprising spaghnum peat moss, vermiculite, wetting agent and starter nutrients and treated with postemergence applications of test chemicals formulated in the same manner. Plants ranged in height from 2 to 18 cm (1- to 4-leaf stage) for postemergence treatments. Treated plants and controls were maintained in a greenhouse for 13 to 15 days, after which time all species were compared to controls and visually evaluated. Plant response ratings, summarized in Table C, are based on a scale of 0 to 100 where 0 is no effect and 100 is complete control. A dash (-) response means no test result.

foxtail, green = assay type: in vivo, Setaria viridis; settings: for Foxtail, Green plant response rating: scale 0 to 100
Source text: as §1, §2

cupgrass, woolly = assay type: in vivo, Eriochloa villosa; settings: for Cupgrass, Woolly plant response rating: scale 0 to 100
Source text: as §1, §2

bermudagrass = assay type: in vivo, Cynodon dactylon; settings: for Bermudagrass plant response rating: scale 0 to 100
Source text: as §1, §2

barley = assay type: in vivo, Hordeum vulgare; settings: 250 g ai/ha, scale 0 to 100 (0 no effect, 100 complete control)
[1] = 125 g ai/ha, scale 0 to 100, 0 no effect, 100 complete control
[2] = 250 g ai/ha, scale 0 to 100 (0 no effect, 100 complete control)
[3] = postemergence, 250 g ai/ha, scale 0 to 100 (0 no effect, 100 complete control)
[4] = postemergence, 125 g ai/ha, scale 0 to 100, 0 no effect, 100 complete control

Row | SMILES | Surinam Grass plant response rating (Surinam grass) | Plant response rating, Surinam Grass (Surinam grass; [1]) | Plant response rating, Surinam Grass (Surinam grass; [2]) | Foxtail, Green plant response rating (foxtail, green; Postemergence, 31 g ai/ha) | Foxtail, Green plant response rating (foxtail, green; postemergence, 62 g ai/ha) | Plant response rating, Foxtail, Green (foxtail, green; [3]) | Plant response rating, Foxtail, Green (foxtail, green; [4]) | Cupgrass, Woolly plant response rating (cupgrass, woolly; Postemergence, 31 g ai/ha) | Cupgrass, Woolly plant response rating (cupgrass, woolly; postemergence, 62 g ai/ha) | Plant response rating, Cupgrass, Woolly (cupgrass, woolly; [3]) | Plant response rating, Cupgrass, Woolly (cupgrass, woolly; [4]) | Bermudagrass plant response rating (bermudagrass; Postemergence, 31 g ai/ha) | Bermudagrass plant response rating (bermudagrass; postemergence, 62 g ai/ha) | Plant response rating, Bermudagrass (bermudagrass; [3]) | Plant response rating, Bermudagrass (bermudagrass; [4]) | Plant response rating, Barley (barley)
1 | CCONC(=O)c1cc(CC)n(Cc2cccc(OC(F)(F)F)c2)n1 [Compound 72] | 10 | 10 | 15 | 20 | 40 | 40 | 40 | 5 | 10 | 15 | 10 | 0 | 0 | 20 | 15 | 10
2 | Cc1cc(C(=O)NCC(F)(F)F)nn1Cc1ccnc(C(F)(F)F)c1 [Compound 74] | 10 | 15 | 25 | 0 | 0 | 5 | 0 | 5 | 10 | 20 | 15 | 5 | 5 | 5 | 5 | 5
